Tests used:
[1] = Animal tests of pure d-α-tocotrienol: blood cholesterol and side effects; assay type: in vivo; conditions: test animals
From the text: We have isolated pure d-α-tocotrienol from barley. […] In addition to being extractable from natural sources, including barley and lemon grass oil, d-α-tocotrienol can be synthesized using available technology similar to that which has been used in the synthesis of Vitamin E and more recently as described by S. Urano et al. (J. Chem. Pharm. Bull. 31, 4341 (1983)).

[2] = Serum lipids in 3-week-old broiler male chickens fed supplemented corn diet; assay type: in vivo, chicken; conditions: for Concentration in Serum Chol-LDL, percentage of control / Concentration in Serum Total Cholesterol, percentage of control / Concentration in Serum Chol-LDL / Concentration in Serum HDL-Chol. / Concentration in Serum Total Cholesterol: fed 3 weeks
From the text: (§1) These responses were attributed to the presence in the small grains of relatively high concentrations of beta-D-glucans and pentosans. A long-standing interest in lipid metabolism prompted us to examine certain lipogenic and cholesterolgenic enzymes in the tissues of these birds. Methods used for handling blood samples, preparing subcellular fractions of liver and assay procedures for beta-hydroxy-beta-methylglutaryl coenzyme A (HMG Co-A) reductase, fatty acid synthetase (FAS), plasma cholesterol and triglycerides and the statistical treatment of the data have been described [Qureshi AA et al. (1980): Regulation of lipid metabolism in chicken livers by dietary cereals, J Nutr 110:388-393].
(§2) For large scale preparation of these compounds, 10 grams of the petroleum ether soluble fraction of HPBF were dissolved in 10 ml petroleum ether and applied to a 90×3.5 cm silicic acid column (Bio-Silica, 100-200 mesh). The column was washed with 2,500 ml petroleum ether followed by stepwise elution with increasing amounts of ether in petroleum ether. Fraction 8 of the column corresponded to HPLC fraction 5. A concentration-dependent suppression of HMG Co-A reductase activity and enhancement of FAS activity was noted within this range. Serum total and LDL cholesterol levels also fell in a dose-dependent response. […] In a companion experiment, using the same control birds, the effect of cholesterol inhibitor I at 5 ppm is compared to the effect of the petroleum ether solubles of HPBF at 20% equivalent on weight gain, HMG Co-A reductase and FAS activities, serum cholesterol and serum triglyceride levels (Table 2). […] Serum triglyceride levels reflected the influence of the diet on FAS activity. […] Cholesterol inhibitor I was a more powerful suppressor of LDL cholesterol (Table 2).
(§3) ^1 Feeding period was 3 weeks; Time of killing was 0800; Data
(§4) expressed as mean ± SD; N = 9 chickens per group; HMGCoA reductase =

[3] = target: T1, FAS (Gallus gallus, UniProt P12276); assay: HPLC fractions checked in vitro for effect on FAS in isolated hepatocytes; assay type: cell-based; conditions: HPLC fractions of petroleum ether solubles
T1 construct: activity in isolated hepatocytes; endogenous in cells; host or cells: isolated hepatocytes
T1 sequence (P12276 2-2512 limits assumed): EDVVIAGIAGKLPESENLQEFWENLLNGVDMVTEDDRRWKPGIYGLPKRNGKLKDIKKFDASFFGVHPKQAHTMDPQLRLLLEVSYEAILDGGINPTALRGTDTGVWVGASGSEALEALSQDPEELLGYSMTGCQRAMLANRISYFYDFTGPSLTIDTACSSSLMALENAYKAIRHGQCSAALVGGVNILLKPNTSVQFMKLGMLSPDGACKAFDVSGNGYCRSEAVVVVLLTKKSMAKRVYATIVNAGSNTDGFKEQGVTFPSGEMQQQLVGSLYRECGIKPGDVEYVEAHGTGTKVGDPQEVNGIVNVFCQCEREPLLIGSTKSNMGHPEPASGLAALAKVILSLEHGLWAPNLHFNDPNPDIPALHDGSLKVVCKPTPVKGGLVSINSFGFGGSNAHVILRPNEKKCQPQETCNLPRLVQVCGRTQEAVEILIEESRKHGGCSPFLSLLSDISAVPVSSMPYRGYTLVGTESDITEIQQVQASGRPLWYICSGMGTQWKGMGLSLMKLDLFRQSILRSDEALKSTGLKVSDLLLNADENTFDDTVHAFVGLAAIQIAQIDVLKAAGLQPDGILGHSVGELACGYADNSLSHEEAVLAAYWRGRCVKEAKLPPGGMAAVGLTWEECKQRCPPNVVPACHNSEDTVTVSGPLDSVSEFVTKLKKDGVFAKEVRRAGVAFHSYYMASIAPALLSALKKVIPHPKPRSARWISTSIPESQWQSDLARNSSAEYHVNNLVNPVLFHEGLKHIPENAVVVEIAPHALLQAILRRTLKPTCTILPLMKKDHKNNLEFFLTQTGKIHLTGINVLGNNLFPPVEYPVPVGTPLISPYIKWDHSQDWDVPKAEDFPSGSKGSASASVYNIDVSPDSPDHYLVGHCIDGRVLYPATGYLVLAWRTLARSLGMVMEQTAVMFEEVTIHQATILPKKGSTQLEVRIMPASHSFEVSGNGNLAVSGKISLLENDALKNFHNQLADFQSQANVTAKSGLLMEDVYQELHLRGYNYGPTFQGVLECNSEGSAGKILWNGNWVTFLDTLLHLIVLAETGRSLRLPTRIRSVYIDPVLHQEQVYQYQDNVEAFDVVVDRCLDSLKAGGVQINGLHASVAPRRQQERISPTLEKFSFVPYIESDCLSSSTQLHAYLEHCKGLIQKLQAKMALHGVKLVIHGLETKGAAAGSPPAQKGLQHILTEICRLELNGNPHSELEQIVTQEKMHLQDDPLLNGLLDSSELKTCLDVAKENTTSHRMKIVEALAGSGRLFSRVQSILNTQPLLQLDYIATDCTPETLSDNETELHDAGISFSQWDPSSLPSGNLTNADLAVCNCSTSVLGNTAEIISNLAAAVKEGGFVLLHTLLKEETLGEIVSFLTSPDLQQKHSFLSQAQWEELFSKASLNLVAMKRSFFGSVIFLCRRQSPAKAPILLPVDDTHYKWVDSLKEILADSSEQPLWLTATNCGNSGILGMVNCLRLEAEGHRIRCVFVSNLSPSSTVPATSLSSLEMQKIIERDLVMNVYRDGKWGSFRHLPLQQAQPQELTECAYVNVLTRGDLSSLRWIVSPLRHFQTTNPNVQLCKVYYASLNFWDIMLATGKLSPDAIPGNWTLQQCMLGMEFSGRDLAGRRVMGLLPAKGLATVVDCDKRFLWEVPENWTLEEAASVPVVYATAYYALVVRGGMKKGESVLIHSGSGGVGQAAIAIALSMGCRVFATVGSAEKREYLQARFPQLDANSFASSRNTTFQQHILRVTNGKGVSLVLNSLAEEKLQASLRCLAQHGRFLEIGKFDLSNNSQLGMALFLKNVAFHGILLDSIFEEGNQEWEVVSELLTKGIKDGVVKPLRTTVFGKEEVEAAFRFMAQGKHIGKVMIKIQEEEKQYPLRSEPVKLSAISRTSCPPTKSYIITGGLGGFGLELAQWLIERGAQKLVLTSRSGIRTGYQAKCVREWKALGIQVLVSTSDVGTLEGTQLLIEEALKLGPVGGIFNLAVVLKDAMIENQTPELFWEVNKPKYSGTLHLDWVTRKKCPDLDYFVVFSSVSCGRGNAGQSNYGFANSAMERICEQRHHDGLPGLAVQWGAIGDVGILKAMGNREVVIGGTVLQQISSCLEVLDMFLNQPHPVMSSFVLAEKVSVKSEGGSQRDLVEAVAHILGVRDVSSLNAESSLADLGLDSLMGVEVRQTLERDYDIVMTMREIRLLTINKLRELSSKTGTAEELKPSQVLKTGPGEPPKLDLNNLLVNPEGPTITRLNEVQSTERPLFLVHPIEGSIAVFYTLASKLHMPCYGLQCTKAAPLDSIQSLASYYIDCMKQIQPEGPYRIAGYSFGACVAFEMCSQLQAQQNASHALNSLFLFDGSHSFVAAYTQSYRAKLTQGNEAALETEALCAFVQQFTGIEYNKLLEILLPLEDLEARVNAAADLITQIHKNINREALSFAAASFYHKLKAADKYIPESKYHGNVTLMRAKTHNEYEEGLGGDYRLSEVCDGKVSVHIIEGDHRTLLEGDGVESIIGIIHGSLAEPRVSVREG

[4] = target: T2, HMG-CoA reductase (Homo sapiens, UniProt P04035); assay: Hepatic HMG-CoA reductase activity in 3-week-old broiler male chickens fed supplemented corn diet; assay type: in vivo, chicken; parameters: preparing subcellular fractions of liver and assay procedures for beta-hydroxy-beta-methylglutaryl coenzyme A (HMG Co-A) reductase; from tissue; host or cells: chicken liver (microsomal fraction); conditions: liver; for HMG-CoA Reductase: mean ± SD, N = 9
T2 sequence (P04035 1-888): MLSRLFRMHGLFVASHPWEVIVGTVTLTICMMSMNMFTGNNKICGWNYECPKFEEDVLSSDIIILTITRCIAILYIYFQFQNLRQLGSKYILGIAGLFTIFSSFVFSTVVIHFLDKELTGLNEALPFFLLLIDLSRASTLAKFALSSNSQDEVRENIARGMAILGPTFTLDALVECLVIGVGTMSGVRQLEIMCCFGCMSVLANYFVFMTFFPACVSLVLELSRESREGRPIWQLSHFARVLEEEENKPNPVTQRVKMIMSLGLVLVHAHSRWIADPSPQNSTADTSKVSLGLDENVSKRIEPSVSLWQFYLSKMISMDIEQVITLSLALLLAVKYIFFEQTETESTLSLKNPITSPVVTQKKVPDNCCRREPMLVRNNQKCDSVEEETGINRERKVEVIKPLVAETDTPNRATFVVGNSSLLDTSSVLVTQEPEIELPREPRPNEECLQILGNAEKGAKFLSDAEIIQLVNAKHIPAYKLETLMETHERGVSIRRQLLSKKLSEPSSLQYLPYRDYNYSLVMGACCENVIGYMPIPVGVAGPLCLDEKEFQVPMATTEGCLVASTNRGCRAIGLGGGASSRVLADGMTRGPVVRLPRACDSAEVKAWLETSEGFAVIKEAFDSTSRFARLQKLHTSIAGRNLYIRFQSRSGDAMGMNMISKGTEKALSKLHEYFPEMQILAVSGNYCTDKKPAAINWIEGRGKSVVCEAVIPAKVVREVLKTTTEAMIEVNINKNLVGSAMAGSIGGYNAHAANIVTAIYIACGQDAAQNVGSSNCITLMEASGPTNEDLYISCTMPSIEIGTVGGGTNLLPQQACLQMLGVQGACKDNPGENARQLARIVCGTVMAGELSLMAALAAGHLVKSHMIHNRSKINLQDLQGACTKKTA
From the text: as §1, §2, §3, §4
hydroxy-methyl-Glutaryl-Coenzyme A reductase.
^2 pmoles of mevalonic acid synthesized per minute per mg of […]

[5] = test system: Fatty Acid Synthetase; assay: Hepatic fatty acid synthetase activity in 3-week-old broiler male chickens fed supplemented corn diet; assay type: in vivo, chicken; conditions: liver; for Fatty Acid Synthetase: mean ± SD, N = 9
From the text: as §1, §2, §3, §4
^3 nmoles of NADPH oxidized per minute per mg of cytosolic protein.

[6] = 2.5 ppm in corn diet, mean ± SD, N = 9
[7] = 5.0 ppm in corn diet, mean ± SD, N = 9
[8] = 10.0 ppm in corn diet, mean ± SD, N = 9
[9] = 15.0 ppm in corn diet, mean ± SD, N = 9
[10] = 20.0 ppm in corn diet, mean ± SD, N = 9
[11] = corn diet + 5 ppm (Table 2), mean ± SD, N = 9
[12] = 2.5 ppm in corn diet, fed 3 weeks
[13] = 5.0 ppm in corn diet, fed 3 weeks
[14] = 10.0 ppm in corn diet, fed 3 weeks
[15] = 15.0 ppm in corn diet, fed 3 weeks
[16] = 20.0 ppm in corn diet, fed 3 weeks

## CC(C)=CCC/C(C)=C/CC/C(C)=C/CC[C@]1(C)CCc2c(C)c(O)c(C)c(C)c2O1 [Cholesterol inhibitor I, 2,5,7,8-tetramethyl-2 (4,8, 12-trimethyltrideca-3,7, 11-trienyl)chroman-6-ol]
[1]
  Effect on high density lipoprotein cholesterol levels: no significant effect
  Side effects: no undesirable side effects
[1]; even in low concentrations
  Effect on total and low density lipoprotein cholesterol: lower concentrations of total and low density lipoprotein cholesterol
[2]; 2.5 ppm in corn diet
  Concentration in Serum Chol-LDL, percentage of control: 90 Percentage of respective contr
  Concentration in Serum Total Cholesterol, percentage of control: 94 Percentage of respective contr
[2]; [6]
  Concentration in Serum Chol-LDL: 73 ± 5 mg/100 ml
  Concentration in Serum HDL-Chol.: 54 ± 6 mg/100 ml
  Concentration in Serum Total Cholesterol: 152 ± 10 mg/100 ml
[2]; 2.5 to 20 ppm, Table 1
  Level of cholesterol transported in the high-density lipoprotein fraction (HDL): not influenced
[2]; 5.0 ppm in corn diet
  Concentration in Serum Chol-LDL, percentage of control: 74 Percentage of respective contr
  Concentration in Serum Total Cholesterol, percentage of control: 89 Percentage of respective contr
[2]; [7]
  Concentration in Serum Chol-LDL: 60 ± 4 mg/100 ml
  Concentration in Serum HDL-Chol.: 51 ± 4 mg/100 ml
  Concentration in Serum Total Cholesterol: 144 ± 8 mg/100 ml
[2]; 10.0 ppm in corn diet
  Concentration in Serum Chol-LDL, percentage of control: 67 Percentage of respective contr
  Concentration in Serum Total Cholesterol, percentage of control: 78 Percentage of respective contr
[2]; [8]
  Concentration in Serum Chol-LDL: 54 ± 4 mg/100 ml
  Concentration in Serum HDL-Chol.: 52 ± 5 mg/100 ml
  Concentration in Serum Total Cholesterol: 125 ± 7 mg/100 ml
[2]; 15.0 ppm in corn diet
  Concentration in Serum Chol-LDL, percentage of control: 64 Percentage of respective contr
  Concentration in Serum Total Cholesterol, percentage of control: 76 Percentage of respective contr
[2]; [9]
  Concentration in Serum Chol-LDL: 52 ± 5 mg/100 ml
  Concentration in Serum HDL-Chol.: 50 ± 6 mg/100 ml
  Concentration in Serum Total Cholesterol: 122 ± 6 mg/100 ml
[2]; 20.0 ppm in corn diet
  Concentration in Serum Chol-LDL, percentage of control: 47 Percentage of respective contr
  Concentration in Serum Total Cholesterol, percentage of control: 65 Percentage of respective contr
[2]; [10]
  Concentration in Serum Chol-LDL: 38 ± 5 mg/100 ml
  Concentration in Serum HDL-Chol.: 48 ± 5 mg/100 ml
  Concentration in Serum Total Cholesterol: 105 ± 8 mg/100 ml
[2]; [11]
  Serum Cholesterol HDL-Chol.: 48 ± 5 mg/dL
  Serum Cholesterol LDL-Chol.: 38 ± 5 mg/dL
  Serum Cholesterol Total-Chol.: 105 ± 11 mg/dL
  Serum Triglycerides: 174 ± 6 mg/dL
[3]
  Effect on activities of FAS: significant increase
[4]; [12]
  HMG-CoA Reductase, percentage of control: 87 Percentage of respective contr
  HMG-CoA Reductase: 172 ± 12 pmoles of mevalonic acid synth
[4]; [13]
  HMG-CoA Reductase, percentage of control: 81 Percentage of respective contr
  HMG-CoA Reductase: 161 ± 12 pmoles of mevalonic acid synth
[4]; [14]
  HMG-CoA Reductase, percentage of control: 73 Percentage of respective contr
  HMG-CoA Reductase: 144 ± 9 pmoles of mevalonic acid synth
[4]; [15]
  HMG-CoA Reductase, percentage of control: 68 Percentage of respective contr
  HMG-CoA Reductase: 135 ± 8 pmoles of mevalonic acid synth
[4]; [16]
  HMG-CoA Reductase, percentage of control: 66 Percentage of respective contr
  HMG-CoA Reductase: 130 ± 6 pmoles of mevalonic acid synth
[4]; corn diet + 5 ppm (Table 2)
  HMG-CoA Reductase: 134 ± 6 pmoles of mevalonic synthesize
[5]; [12]
  Fatty Acid Synthetase, percentage of control: 118 Percentage of respective contr
  Fatty Acid Synthetase: 190 ± 12 nmoles of NADPH oxidized per m
[5]; [13]
  Fatty Acid Synthetase, percentage of control: 120 Percentage of respective contr
  Fatty Acid Synthetase: 202 ± 10 nmoles of NADPH oxidized per m
[5]; [14]
  Fatty Acid Synthetase, percentage of control: 125 Percentage of respective contr
  Fatty Acid Synthetase: 210 ± 15 nmoles of NADPH oxidized per m
[5]; [15]
  Fatty Acid Synthetase, percentage of control: 130 Percentage of respective contr
  Fatty Acid Synthetase: 218 ± 17 nmoles of NADPH oxidized per m
[5]; [16]
  Fatty Acid Synthetase, percentage of control: 140 Percentage of respective contr
  Fatty Acid Synthetase: 235 ± 18 nmoles of NADPH oxidized per m
[5]; corn diet + 5 ppm (Table 2)
  Fatty Acid Synthetase: 215 ± 18 nmoles of NADPH oxidized per m

Source: patent publication US4603142A, “Cholesterol lowering method of use” (Wisconsin Alumni Research Foundation, priority 1984, dated 1986)
